In PubChem BioAssay AID1259407 (Chemical Carcinogenesis Research Information System (CCRIS), 2018):
Activity calls are given as the source filed them. The rule behind the calls is not given here.

Test system: CCRIS mutagenicity, Ames/micronucleus/aberration tests
Experiment: CCRIS mutagenicity studies
[1] = Test System: AMES SALMONELLA TYPHIMURIUM, Strain/Indicator: TA98, Metabolic Activation: NONE, Method: STANDARD PLATE
[2] = Test System: AMES SALMONELLA TYPHIMURIUM, Strain/Indicator: TA100, Metabolic Activation: NONE, Method: STANDARD PLATE
[3] = Test System: AMES SALMONELLA TYPHIMURIUM, Strain/Indicator: TA1535, Metabolic Activation: NONE, Method: STANDARD PLATE
[4] = Test System: AMES SALMONELLA TYPHIMURIUM, Strain/Indicator: TA98, Metabolic Activation: NONE, Method: PREINCUBATION
[5] = Test System: AMES SALMONELLA TYPHIMURIUM, Strain/Indicator: TA100, Metabolic Activation: NONE, Method: PREINCUBATION

`O=[N+]([O-])C(Cl)Br` (stereo not given) was tested, and the mutagenic call (Test System: Ames Salmonella typhimurium, Strain/Indicator: RSJ100, Metabolic Activation: None, Method: Standard plate) was “active; positive (weak)”, the mutagenic call (Test System: Ames Salmonella typhimurium, Strain/Indicator: RSJ100, Metabolic Activation: Rat, Liver, S-9, Aroclor, Method: Standard plate) was “inactive; negative” and the mutagenic call (Test System: Ames Salmonella typhimurium, Strain/Indicator: TA98, Metabolic Activation: None, Method: Standard plate) was “active; positive (weak)”. The mutagenic call (Test System: Ames Salmonella typhimurium, Strain/Indicator: TA98, Metabolic Activation: Rat, Liver, S-9, Aroclor, Method: Standard plate) was “inactive; negative”, the mutagenic call (Test System: Ames Salmonella typhimurium, Strain/Indicator: TA100, Metabolic Activation: None, Method: Standard plate) was “inactive; negative” and the mutagenic call (Test System: Ames Salmonella typhimurium, Strain/Indicator: TA100, Metabolic Activation: Rat, Liver, S-9, Aroclor, Method: Standard plate) was “active; positive”. The mutagenic call (Test System: Ames Salmonella typhimurium, Strain/Indicator: TA104, Metabolic Activation: None, Method: Standard plate) was “inactive; negative”, the mutagenic call (Test System: Ames Salmonella typhimurium, Strain/Indicator: TA104, Metabolic Activation: Rat, Liver, S-9, Aroclor, Method: Standard plate) was “inactive; negative” and the mutagenic call (Test System: Ames Salmonella typhimurium, Strain/Indicator: TPT100, Metabolic Activation: None, Method: Standard plate) was “inactive; negative”.

For `O=C(CCl)Nc1snc2ccccc12`, the mutagenic call [1] was “inactive; negative”, the mutagenic call (Test System: AMES SALMONELLA TYPHIMURIUM, Strain/Indicator: TA98, Metabolic Activation: S-9, Method: STANDARD PLATE) was “active; positive” and the mutagenic call [2] was “inactive; negative”. The mutagenic call (Test System: AMES SALMONELLA TYPHIMURIUM, Strain/Indicator: TA100, Metabolic Activation: S-9, Method: STANDARD PLATE) was “active; positive”, the mutagenic call [3] was “inactive; negative” and the mutagenic call (Test System: AMES SALMONELLA TYPHIMURIUM, Strain/Indicator: TA1535, Metabolic Activation: S-9, Method: STANDARD PLATE) was “inactive; negative”. For the same molecule, the mutagenic call (Test System: AMES SALMONELLA TYPHIMURIUM, Strain/Indicator: TA1537, Metabolic Activation: NONE, Method: STANDARD PLATE) was “active; positive” and the mutagenic call (Test System: AMES SALMONELLA TYPHIMURIUM, Strain/Indicator: TA1537, Metabolic Activation: S-9, Method: STANDARD PLATE) was “active; positive”.

With `CN(N=O)c1ccccc1` the mutagenic call (Test System: AMES SALMONELLA TYPHIMURIUM, Strain/Indicator: HISG428, Metabolic Activation: RAT, LIVER, S-9, AROCLOR 1254, Method: PREINCUBATION) was “inactive; negative”, the mutagenic call (Test System: AMES SALMONELLA TYPHIMURIUM, Strain/Indicator: TA100, Metabolic Activation: RAT, LIVER, S-9, AROCLOR 1254, Method: PREINCUBATION) was “active; positive” and the mutagenic call (Test System: AMES SALMONELLA TYPHIMURIUM, Strain/Indicator: TA104, Metabolic Activation: RAT, LIVER, S-9, AROCLOR 1254, Method: PREINCUBATION) was “active; positive”. For the same molecule, the mutagenic call (Test System: AMES SALMONELLA TYPHIMURIUM, Strain/Indicator: TA1537, Metabolic Activation: RAT, LIVER, S-9, PHENOBARBITAL, Method: STANDARD PLATE) was “inactive; negative”, the mutagenic call (Test System: AMES SALMONELLA TYPHIMURIUM, Strain/Indicator: TA1537, Metabolic Activation: RAT, LIVER, S-9, PYRAZOLE, Method: STANDARD PLATE) was “active; positive” and the mutagenic call (Test System: AMES SALMONELLA TYPHIMURIUM, Strain/Indicator: TA1537, Metabolic Activation: RAT, LIVER, S-9, Method: LIQUID INCUBATION) was “active; positive”. For the same molecule, the mutagenic call (Test System: AMES SALMONELLA TYPHIMURIUM, Strain/Indicator: TA2638, Metabolic Activation: RAT, LIVER, S-9, AROCLOR 1254, Method: PREINCUBATION) was “active; positive”, the mutagenic call (Test System: AMES SALMONELLA TYPHIMURIUM, Strain/Indicator: TA2659, Metabolic Activation: RAT, LIVER, S-9, AROCLOR 1254, Method: PREINCUBATION) was “inactive; negative” and the mutagenic call (Test System: AMES SALMONELLA TYPHIMURIUM, Strain/Indicator: YG7108-2A6-OR, Metabolic Activation: NONE, Method: PREINCUBATION) was “active; positive”. For the same molecule, the mutagenic call (Test System: AMES SALMONELLA TYPHIMURIUM, Strain/Indicator: YG7108-2A6, Metabolic Activation: NONE, Method: PREINCUBATION) was “active; positive”, the mutagenic call (Test System: AMES SALMONELLA TYPHIMURIUM, Strain/Indicator: YG7108-PCW, Metabolic Activation: NONE, Method: PREINCUBATION) was “inactive; negative” and the mutagenic call (Test System: AMES SALMONELLA TYPHIMURIUM, Strain/Indicator: YG7108, Metabolic Activation: RAT LIVER S-9, PHENOBARBITAL AND 5,6-BENZOFLAVONE, Method: PREINCUBATION) was “inactive; negative”.

For `C/C(O)=C(\N=O)C(=O)N(c1ccccc1)N(C)N=O`, the mutagenic call [4] was “active; positive”, the mutagenic call (Test System: AMES SALMONELLA TYPHIMURIUM, Strain/Indicator: TA98, Method: PREINCUBATION) was “active; positive” and the mutagenic call [5] was “active; positive”. For the same molecule, the mutagenic call (Test System: AMES SALMONELLA TYPHIMURIUM, Strain/Indicator: TA100, Method: PREINCUBATION) was “active; positive”.

In the case of `C=C(C)C1CC=C(C)C(O)C1` (stereo not given), the mutagenic call (Test System: AMES SALMONELLA TYPHIMURIUM, Strain/Indicator: TA98, Metabolic Activation: HAMSTER, LIVER, S-9, AROCLOR 1254 (10%), Method: PREINCUBATION) is reported as “inactive; negative”, the mutagenic call [4] is reported as “inactive; negative” and the mutagenic call (Test System: AMES SALMONELLA TYPHIMURIUM, Strain/Indicator: TA98, Metabolic Activation: RAT, LIVER, S-9, AROCLOR 1254 (10%), Method: PREINCUBATION) is reported as “inactive; negative”. The mutagenic call (Test System: AMES SALMONELLA TYPHIMURIUM, Strain/Indicator: TA100, Metabolic Activation: HAMSTER, LIVER, S-9, AROCLOR 1254 (10%), Method: PREINCUBATION) was “inactive; negative”, the mutagenic call [5] was “inactive; negative” and the mutagenic call (Test System: AMES SALMONELLA TYPHIMURIUM, Strain/Indicator: TA100, Metabolic Activation: RAT, LIVER, S-9, AROCLOR 1254 (10%), Method: PREINCUBATION) was “inactive; negative”. For the same molecule, the mutagenic call (Test System: AMES SALMONELLA TYPHIMURIUM, Strain/Indicator: TA1535, Metabolic Activation: HAMSTER, LIVER, S-9, AROCLOR 1254 (10%), Method: PREINCUBATION) was “inactive; negative”, the mutagenic call (Test System: AMES SALMONELLA TYPHIMURIUM, Strain/Indicator: TA1535, Metabolic Activation: NONE, Method: PREINCUBATION) was “inactive; negative” and the mutagenic call (Test System: AMES SALMONELLA TYPHIMURIUM, Strain/Indicator: TA1535, Metabolic Activation: RAT, LIVER, S-9, AROCLOR 1254 (10%), Method: PREINCUBATION) was “inactive; negative”. For the same molecule, the mutagenic call (Test System: AMES SALMONELLA TYPHIMURIUM, Strain/Indicator: TA1537, Metabolic Activation: HAMSTER, LIVER, S-9, AROCLOR 1254 (10%), Method: PREINCUBATION) was “inactive; negative”, the mutagenic call (Test System: AMES SALMONELLA TYPHIMURIUM, Strain/Indicator: TA1537, Metabolic Activation: NONE, Method: PREINCUBATION) was “inactive; negative” and the mutagenic call (Test System: AMES SALMONELLA TYPHIMURIUM, Strain/Indicator: TA1537, Metabolic Activation: RAT, LIVER, S-9, AROCLOR 1254 (10%), Method: PREINCUBATION) was “inactive; negative”.

For `CN1CCN(c2ccc3nc(Cc4ccc5nc(-c6ccc(N(CCCl)CCCl)cc6)[nH]c5c4)[nH]c3c2)CC1`, the mutagenic call [1] was “inactive; negative”, the mutagenic call [2] was “inactive; negative” and the mutagenic call (Test System: AMES SALMONELLA TYPHIMURIUM, Strain/Indicator: TA102, Metabolic Activation: NONE, Method: STANDARD PLATE) was “inactive; negative”.

In the case of `O=[N+]([O-])c1ccc2ccc3c4c(cc5ccc1c2c53)[C@H](O)[C@@H](O)C=C4`, the mutagenic call (Test System: AMES SALMONELLA TYPHIMURIUM, Strain/Indicator: TA98, Metabolic Activation: NONE) is reported as “active; positive”, the mutagenic call (Test System: AMES SALMONELLA TYPHIMURIUM, Strain/Indicator: TA98, Metabolic Activation: RAT, LIVER, S-9, AROCLOR 1254) is reported as “active; positive” and the mutagenic call (Test System: CHINESE HAMSTER OVARY, Strain/Indicator: CHO-K1-BH4 (HGPRT), Metabolic Activation: NONE) is reported as “active; positive”. For the same molecule, the mutagenic call (Test System: CHINESE HAMSTER OVARY, Strain/Indicator: CHO-K1-BH4 (HGPRT), Metabolic Activation: RAT, LIVER, S-9, 3-METHYLCHOLANTHRENE) was “active; positive”.

For `CCC1(c2ccccc2)C(=O)N=C(O)NC1=O` (stereo not given), the mutagenic call (Test System: AMES SALMONELLA TYPHIMURIUM, Strain/Indicator: TA97, Metabolic Activation: NONE, Method: STANDARD PLATE) was “inactive; negative”, the mutagenic call (Test System: AMES SALMONELLA TYPHIMURIUM, Strain/Indicator: TA97, Metabolic Activation: RAT, LIVER, S-9, AROCLOR 1254, Method: STANDARD PLATE) was “inactive; negative” and the mutagenic call [1] was “inactive; negative”. For the same molecule, the mutagenic call (Test System: AMES SALMONELLA TYPHIMURIUM, Strain/Indicator: TA98, Metabolic Activation: RAT, LIVER, S-9, AROCLOR 1254, Method: STANDARD PLATE) was “inactive; negative”, the mutagenic call [2] was “inactive; negative” and the mutagenic call (Test System: AMES SALMONELLA TYPHIMURIUM, Strain/Indicator: TA100, Metabolic Activation: RAT, LIVER, S-9, AROCLOR 1254, Method: STANDARD PLATE) was “inactive; negative”. The mutagenic call (Test System: AMES SALMONELLA TYPHIMURIUM, Strain/Indicator: TA102, Metabolic Activation: RAT, LIVER, S-9, AROCLOR 1254, Method: STANDARD PLATE) was “inactive; negative” and the mutagenic call [3] was “active; positive”.
